Data reported in patent US20250382344A1, “Soluble GLP1/GIP/NPY2 Receptor Triple Agonists” (Boehringer Ingelheim International GmH, priority 2024, published 2025).
Changes are numbered by the printed parent chain. Like-named read-outs stand apart in the source and are kept apart here. *1 amine or outer side, *2 acyl side, *3 side chain or, on linkers, in order; H or OH if unused. Where no end group is shown, it is not given here. Side-chain parts run from the residue outwards. [ ]: non-standard residue; d: D form. The star is where a group is joined. C20 diacid = O=C(O)CCCCCCCCCCCCCCCCCCC(=O)*; C18 diacid = O=C(O)CCCCCCCCCCCCCCCCC(=O)*; γGlu = O=C(O)[C@H](CCC(=O)[*:2])N[*:1]; εLys = N[C@@H](CCCCN[*:1])C(=O)[*:2]; Aib = CC(C)(N)C(=O)O

B1: Compound 18 (peptide)
peptide: Y[Aib]EGTFTSDYSI[Aib]LEKQAQ[Aib]AFVRHLINK([εLys-γGlu-γGlu-γGlu-γGlu-γGlu-γGlu-γGlu-C18 diacid])ITRQRY-NH2
B2: Compound 11 (peptide)
peptide: Y[Aib]EGTFTSDYSI[Aib]LEKQAQ[Aib]AFVRHLINK([εLys-εLys-γGlu-γGlu-γGlu-γGlu-γGlu-γGlu-C18 diacid])[Aib]TRQRY-NH2
B3: Compound 57 (peptide)
peptide: Y[Aib]EGTFTSDYSILLEKQAQ[Aib]AFVRHLINK([γGlu-γGlu-γGlu-γGlu-γGlu-γGlu-C20 diacid])[Aib]TRQRY-NH2
B4: Compound 20 (peptide)
peptide: YXEGTFTSDLSIXLEKQAQXAFVRHLINKXTRQRY
modifications: Aib at 2, 13, 20, 30; Lys29 epsilon-amino acylated with C20DA-gGlu-gGlu-gGlu-gGlu-gGlu-gGlu-eLys; C-terminal amide
B5: Compound 24 (peptide)
peptide: B4 peptide with L10Y, Q17I
modifications: Aib at 2, 13, 20, 30; Lys29 epsilon-amino acylated with C18DA-gGlu-gGlu-gGlu-gGlu-gGlu-gGlu-eLys; C-terminal amide
B6: Compound 80 (peptide)
peptide: B4 peptide with L10Y, I27L
modifications: Aib at 2, 13, 20, 30; Lys29 epsilon-amino acylated with C20DA-gGlu-gGlu-gGlu-gGlu-gGlu-gGlu-eLys; C-terminal amide
B7: Compound 53 (peptide)
peptide: B4 peptide with L10Y, V23I
modifications: Aib at 2, 20, 30; aMeL at 13; Lys29 epsilon-amino acylated with C20DA-gGlu-gGlu-gGlu-gGlu-gGlu-gGlu-eLys; C-terminal amide
B8: Compound 15 (peptide)
peptide: B4 peptide with L10F
modifications: Aib at 2, 13, 20, 30; Lys29 epsilon-amino acylated with C20DA-gGlu-gGlu-gGlu-gGlu-gGlu-gGlu-eLys; C-terminal amide
B9: Compound 71 (peptide)
peptide: B4 peptide with L10Y, K16E
modifications: Aib at 2, 13, 20, 30; Lys29 epsilon-amino acylated with C18DA-gGlu-gGlu-gGlu-gGlu-gGlu-gGlu-eLys; C-terminal amide

Key:
hGLP1R = target: T1, hGLP1R (Homo sapiens, UniProt P43220); experiment: hGLP1R CreLuc assay in 0.5% and 100% plasma (HEK-293 CRE-luciferase reporter cells); assay type: cell-based; conditions: 0.5% human plasma, HEK-293 reporter cells, read-out: hGLP1R 0.5% hP
T1 construct: expressed in transfected cells; host or cells: HEK-293 CRE-luciferase reporter cells
T1 sequence (P43220 24-463): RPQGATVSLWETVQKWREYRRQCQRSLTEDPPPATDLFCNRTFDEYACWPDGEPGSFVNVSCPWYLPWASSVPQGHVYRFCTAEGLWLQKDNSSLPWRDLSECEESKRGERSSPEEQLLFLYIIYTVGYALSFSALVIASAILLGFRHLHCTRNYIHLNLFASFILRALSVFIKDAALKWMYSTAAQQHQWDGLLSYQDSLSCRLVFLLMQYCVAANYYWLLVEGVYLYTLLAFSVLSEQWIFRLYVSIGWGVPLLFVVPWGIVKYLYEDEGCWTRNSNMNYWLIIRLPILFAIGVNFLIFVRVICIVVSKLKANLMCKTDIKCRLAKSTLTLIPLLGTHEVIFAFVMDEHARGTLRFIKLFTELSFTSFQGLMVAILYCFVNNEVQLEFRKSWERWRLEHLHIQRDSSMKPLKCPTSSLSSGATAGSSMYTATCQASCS

hGIPR = target: T2, hGIPR (Homo sapiens, UniProt P48546); experiment: hGIPR CreLuc assay in 0.5% and 100% plasma (CHO CRE-luciferase reporter cells); assay type: cell-based
T2 construct: expressed in transfected cells; host or cells: CHO CRE-luciferase reporter cells
T2 sequence (P48546 22-466): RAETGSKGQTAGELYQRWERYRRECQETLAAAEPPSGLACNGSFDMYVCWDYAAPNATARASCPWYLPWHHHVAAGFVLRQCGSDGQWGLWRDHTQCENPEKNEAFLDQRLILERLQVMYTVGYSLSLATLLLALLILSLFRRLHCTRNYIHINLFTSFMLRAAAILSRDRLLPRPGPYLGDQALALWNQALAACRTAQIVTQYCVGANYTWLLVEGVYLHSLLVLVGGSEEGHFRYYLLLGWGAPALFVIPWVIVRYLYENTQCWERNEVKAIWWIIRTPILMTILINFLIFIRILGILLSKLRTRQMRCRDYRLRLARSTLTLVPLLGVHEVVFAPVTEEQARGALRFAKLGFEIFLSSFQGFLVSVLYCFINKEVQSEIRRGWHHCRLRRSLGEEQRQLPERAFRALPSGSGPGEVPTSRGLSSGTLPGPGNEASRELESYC

[1] = Solubility in 0.1 M phosphate buffer at pH 7; assay type: physicochemical; conditions: 0.1 M phosphate buffer at pH 7, 10 mg/mL final peptide concentration, shaking 2 hours at room temperature, peptides as TFA-salts, measured sample pH 6.5-7.0
human GIP receptor = target: T3, human GIP receptor (human, UniProt P48546 22-466); experiment: cell-based or functional assay
T3 sequence (looked up): T2 sequence (P48546 22-466)

[2] = 0.5% human plasma, read-out: hGIPR 0.5% hP
[3] = 100% human plasma, read-out: hGIPR 100% hP

| EC50 (hGLP1R) [nM] | EC50 (hGIPR; [2]) [nM] | EC50, CreLuc reporter, 0.5% hP (human GIP receptor) [nM] | other results | Molecule |
| --- | --- | --- | --- | --- |
| 7 | 0.8 |  | solubility ([1]; read-out: Solubility): 5100 µg/mL | CC[C@H](C)[C@H](NC(=O)[C@H](CC(C)C)NC(=O)[C@H](Cc1c[nH]cn1)NC(=O)[C@H](CCCNC(=N)N)NC(=O)[C@@H](NC(=O)[C@H](Cc1ccccc1)NC(=O)[C@H](C)NC(=O)C(C)(C)NC(=O)[C@H](CCC(N)=O)NC(=O)[C@H](C)NC(=O)[C@H](CCC(N)=O)NC(=O)[C@H](CCCCN)NC(=O)[C@H](CCC(=O)O)NC(=O)[C@H](CC(C)C)NC(=O)C(C)(C)NC(=O)[C@H](C)NC(=O)[C@H](CO)NC(=O)[C@H](Cc1ccc(O)cc1)NC(=O)[C@H](CC(=O)O)NC(=O)[C@H](CO)NC(=O)[C@@H](NC(=O)[C@H](Cc1ccccc1)NC(=O)[C@@H](NC(=O)CNC(=O)[C@H](CCC(=O)O)NC(=O)C(C)(C)NC(=O)[C@@H](N)Cc1ccc(O)cc1)[C@@H](C)O)[C@@H](C)O)C(C)C)C(=O)N[C@@H](CC(N)=O)C(=O)N[C@@H](CCCCNC(=O)[C@@H](N)CCCCNC(=O)CC[C@H](NC(=O)CC[C@H](NC(=O)CC[C@H](NC(=O)CC[C@H](NC(=O)CC[C@H](NC(=O)CC[C@H](NC(=O)CCCCCCCCCCCCCCCCC(=O)O)C(=O)O)C(=O)O)C(=O)O)C(=O)O)C(=O)O)C(=O)O)C(=O)NC(C)(C)C(=O)N[C@H](C(=O)N[C@@H](CCCNC(=N)N)C(=O)N[C@@H](CCC(N)=O)C(=O)N[C@@H](CCCNC(=N)N)C(=O)N[C@@H](Cc1ccc(O)cc1)C(N)=O)[C@@H](C)O [Compound 156, Y-Aib-E-G-T-F-T-S-D-Y-S-A-Aib-L-E-K-Q-A-Q-Aib-A-F-V-R-H-L-I-N-K(1,3)-Aib-T-R-Q-R-Y-NH2.C18DA-gGlu-gGlu-gGlu-gGlu-gGlu-gGlu-eLys(1,2)] |
| 0.6 | 0.5 |  | EC50 (hGIPR; [3]): 14.4 nM; solubility at 2 h [1]: 3200 µg/mL | CC[C@H](C)[C@H](NC(=O)[C@H](CC(C)C)NC(=O)[C@H](Cc1c[nH]cn1)NC(=O)[C@H](CCCNC(=N)N)NC(=O)[C@@H](NC(=O)[C@H](Cc1ccccc1)NC(=O)[C@H](C)NC(=O)C(C)(C)NC(=O)[C@H](CCC(N)=O)NC(=O)[C@H](C)NC(=O)[C@H](CCC(N)=O)NC(=O)[C@H](CCCCN)NC(=O)[C@H](CCC(=O)O)NC(=O)[C@H](CC(C)C)NC(=O)C(C)(C)NC(=O)[C@@H](NC(=O)[C@H](CO)NC(=O)[C@H](Cc1ccc(O)cc1)NC(=O)[C@H](CC(=O)O)NC(=O)[C@H](CO)NC(=O)[C@@H](NC(=O)[C@H](Cc1ccccc1)NC(=O)[C@@H](NC(=O)CNC(=O)[C@H](CCC(=O)O)NC(=O)C(C)(C)NC(=O)[C@@H](N)Cc1ccc(O)cc1)[C@@H](C)O)[C@@H](C)O)[C@@H](C)CC)C(C)C)C(=O)N[C@@H](CC(N)=O)C(=O)N[C@@H](CCCCNC(=O)CC[C@H](NC(=O)CC[C@H](NC(=O)CC[C@H](NC(=O)CC[C@H](NC(=O)CC[C@H](NC(=O)CCCCCCCCCCCCCCCCC(=O)O)C(=O)O)C(=O)O)C(=O)O)C(=O)O)C(=O)O)C(=O)N[C@@H](CC(C)C)C(=O)N[C@H](C(=O)N[C@@H](CCCNC(=N)N)C(=O)N[C@@H](CCC(N)=O)C(=O)N[C@@H](CCCNC(=N)N)C(=O)N[C@@H](Cc1ccc(O)cc1)C(N)=O)[C@@H](C)O [Compound 158, Y-Aib-E-G-T-F-T-S-D-Y-S-I-Aib-L-E-K-Q-A-Q-Aib-A-F-V-R-H-L-I-N-K(1,3)-L-T-R-Q-R-Y-NH2.C18DA-gGlu-gGlu-gGlu-gGlu-gGlu(1,2)] |
| 7.1 | 0.4 |  | solubility at 2 h [1]: 5200 µg/mL | CC[C@H](C)[C@H](NC(=O)[C@H](CO)NC(=O)[C@H](Cc1ccc(O)cc1)NC(=O)[C@H](CC(=O)O)NC(=O)[C@H](CO)NC(=O)[C@@H](NC(=O)[C@H](Cc1ccccc1)NC(=O)[C@@H](NC(=O)CNC(=O)[C@H](CCC(=O)O)NC(=O)C(C)(C)NC(=O)[C@@H](N)Cc1ccc(O)cc1)[C@@H](C)O)[C@@H](C)O)C(=O)N[C@@H](CCC(=O)O)C(=O)N[C@@H](CC(C)C)C(=O)N[C@@H](CCC(=O)O)C(=O)N[C@@H](CCCCN)C(=O)N[C@@H](CCC(N)=O)C(=O)N[C@@H](C)C(=O)N[C@@H](CCC(N)=O)C(=O)NC(C)(C)C(=O)N[C@@H](C)C(=O)N[C@@H](Cc1ccccc1)C(=O)N[C@H](C(=O)N[C@@H](CCCNC(=N)N)C(=O)N[C@@H](Cc1c[nH]cn1)C(=O)N[C@@H](CC(C)C)C(=O)N[C@H](C(=O)N[C@@H](CC(N)=O)C(=O)N[C@@H](CCCCNC(=O)[C@@H](N)CCCCNC(=O)CC[C@H](NC(=O)CC[C@H](NC(=O)CC[C@H](NC(=O)CC[C@H](NC(=O)CC[C@H](NC(=O)CC[C@H](NC(=O)CCCCCCCCCCCCCCCCC(=O)O)C(=O)O)C(=O)O)C(=O)O)C(=O)O)C(=O)O)C(=O)O)C(=O)NC(C)(C)C(=O)N[C@H](C(=O)N[C@@H](CCCNC(=N)N)C(=O)N[C@@H](CCC(N)=O)C(=O)N[C@@H](CCCNC(=N)N)C(=O)N[C@@H](Cc1ccc(O)cc1)C(N)=O)[C@@H](C)O)[C@@H](C)CC)C(C)C [Compound 160, Y-Aib-E-G-T-F-T-S-D-Y-S-I-E-L-E-K-Q-A-Q-Aib-A-F-V-R-H-L-I-N-K(1,3)-Aib-T-R-Q-R-Y-NH2.C18DA-gGlu-gGlu-gGlu-gGlu-gGlu-gGlu-eLys(1,2)] |
| 0.1 | 0.2 |  | EC50 (hGIPR; [3]): 5.9 nM; solubility at 2 h [1]: 5000 µg/mL | CC[C@H](C)[C@H](NC(=O)[C@H](CC(C)C)NC(=O)[C@H](Cc1c[nH]cn1)NC(=O)[C@H](CCCNC(=N)N)NC(=O)[C@@H](NC(=O)[C@H](Cc1ccccc1)NC(=O)[C@H](CCC(=O)O)NC(=O)C(C)(C)NC(=O)[C@H](CCC(N)=O)NC(=O)[C@H](C)NC(=O)[C@H](CCC(N)=O)NC(=O)[C@H](CCCCN)NC(=O)[C@H](CCC(=O)O)NC(=O)[C@H](CC(C)C)NC(=O)C(C)(C)NC(=O)[C@@H](NC(=O)[C@H](CO)NC(=O)[C@H](Cc1ccc(O)cc1)NC(=O)[C@H](CC(=O)O)NC(=O)[C@H](CO)NC(=O)[C@@H](NC(=O)[C@H](Cc1ccccc1)NC(=O)[C@@H](NC(=O)CNC(=O)[C@H](CCC(=O)O)NC(=O)C(C)(C)NC(=O)[C@@H](N)Cc1ccc(O)cc1)[C@@H](C)O)[C@@H](C)O)[C@@H](C)CC)C(C)C)C(=O)N[C@@H](CC(N)=O)C(=O)N[C@@H](CCCCNC(=O)[C@@H](N)CCCCNC(=O)CC[C@H](NC(=O)CC[C@H](NC(=O)CC[C@H](NC(=O)CC[C@H](NC(=O)CCCCCCCCCCCCCCCCC(=O)O)C(=O)O)C(=O)O)C(=O)O)C(=O)O)C(=O)NC(C)(C)C(=O)N[C@H](C(=O)N[C@@H](CCCNC(=N)N)C(=O)N[C@@H](CCC(N)=O)C(=O)N[C@@H](CCCNC(=N)N)C(=O)N[C@@H](Cc1ccc(O)cc1)C(N)=O)[C@@H](C)O [Compound 163, Y-Aib-E-G-T-F-T-S-D-Y-S-I-Aib-L-E-K-Q-A-Q-Aib-E-F-V-R-H-L-I-N-K(1,3)-Aib-T-R-Q-R-Y-NH2.C18DA-gGlu-gGlu-gGlu-gGlu-eLys(1,2)] |
|  |  | 0.2 |  | B1 |
|  |  |  | EC50, CreLuc reporter, 100% hP (human GIP receptor): 8 nM | B2 |
|  |  | 0.3 |  | B3 |
|  |  | 0.4 |  | B4 |
|  |  | 1 | EC50, CreLuc reporter, 100% hP (human GIP receptor): 26.2 nM | B5 |
|  |  | 1.7 |  | B6 |
|  |  | 0.1 | EC50, CreLuc reporter, 100% hP (human GIP receptor): 1.7 nM | B7 |
|  |  | 0.6 |  | B8 |
|  |  | 0.3 |  | B9 |
